Reference: PubChem BioAssay AID248 (DTP/NCI, 2004)
Several values for one entry are separate records, joined by “and”; a condition that tells them apart may be missing. Identical values can stand only once. Toxic doses and inconclusive results are not listed. Cut-off read from the data, not from the text of the source: active = T/C of 150% or more; inactive = T/C below 125%.

Tested on: L1210 leukemia ip in BDF1 mice, survival T/C
Experiment: NCI In Vivo Anticancer Drug Screen. Data for tumor model L1210 Leukemia (intraperitoneal) in B6D2F1 (BDF1) mice
Details: endpoint: mean survival time, higher = longer survival
Summary of the method: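 In this screen, tumor-bearing mice given compound are compared to those given vehicle, and their survival values are reported as a treated-to-control quotient.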

[1] = dose: 100.0 mg/kg/injection, schedule: Q01DX009 (ip), vehicle: saline with Tween-80
[2] = dose: 100.0 mg/kg/injection, schedule: Q04DX003 (ip), vehicle: saline with Tween-80
[3] = dose: 200.0 mg/kg/injection, schedule: Q01DX009 (ip), vehicle: saline with Tween-80
[4] = dose: 200.0 mg/kg/injection, schedule: Q04DX003 (ip), vehicle: saline with Tween-80
[5] = dose: 400.0 mg/kg/injection, schedule: Q01DX009 (ip), vehicle: saline with Tween-80
[6] = dose: 400.0 mg/kg/injection, schedule: Q04DX002 (ip), vehicle: saline with Tween-80
[7] = dose: 400.0 mg/kg/injection, schedule: Q04DX003 (ip), vehicle: saline with Tween-80
[8] = dose: 100.0 mg/kg/injection, schedule: Q04DX003 (ip), vehicle: Klucel (hydroxypropylcellulose) (HPC)
[9] = dose: 200.0 mg/kg/injection, schedule: Q04DX003 (ip), vehicle: Klucel (hydroxypropylcellulose) (HPC)
[10] = dose: 400.0 mg/kg/injection, schedule: Q04DX003 (ip), vehicle: Klucel (hydroxypropylcellulose) (HPC)
[11] = dose: 50.0 mg/kg/injection, schedule: Q01DX009 (ip), vehicle: Klucel (hydroxypropylcellulose) (HPC)
[12] = dose: 100.0 mg/kg/injection, schedule: Q01DX009 (ip), vehicle: Klucel (hydroxypropylcellulose) (HPC)
[13] = dose: 200.0 mg/kg/injection, schedule: Q01DX009 (ip), vehicle: Klucel (hydroxypropylcellulose) (HPC)
[14] = dose: 100.0 mg/kg/injection, schedule: Q01DX001 (ip), vehicle: saline
[15] = dose: 200.0 mg/kg/injection, schedule: Q01DX001 (ip), vehicle: saline
[16] = dose: 400.0 mg/kg/injection, schedule: Q01DX001 (ip), vehicle: saline
[17] = dose: 100.0 mg/kg/injection, schedule: Q04DX003 (ip), vehicle: other
[18] = dose: 200.0 mg/kg/injection, schedule: Q04DX003 (ip), vehicle: other
[19] = dose: 400.0 mg/kg/injection, schedule: Q04DX003 (ip), vehicle: other
[20] = dose: 100.0 mg/kg/injection, schedule: Q01DX009 (ip), vehicle: saline
[21] = dose: 200.0 mg/kg/injection, schedule: Q01DX009 (ip), vehicle: saline
[22] = dose: 100.0 mg/kg/injection, schedule: Q04DX003 (ip), vehicle: saline
[23] = dose: 400.0 mg/kg/injection, schedule: Q04DX003 (ip), vehicle: saline

Measured: T/C

COc1cccc(C(O)c2cnc(C)n2Cc2ccccc2)c1 (stereo unspecified)
inactive: dose: 100.0 mg/kg/injection, schedule: Q01DX001 (ip), vehicle: saline with Tween-80 94 % of control | [1] 93 % of control and 107 % of control | dose: 100.0 mg/kg/injection, schedule: Q04DX002 (ip), vehicle: saline with Tween-80 97 % of control and 100 % of control | [2] 101 % of control | dose: 200.0 mg/kg/injection, schedule: Q01DX001 (ip), vehicle: saline with Tween-80 100 % of control | [3] 98 % of control and 99 % of control | dose: 200.0 mg/kg/injection, schedule: Q04DX002 (ip), vehicle: saline with Tween-80 102 % of control and 107 % of control | [4] 93 % of control | dose: 400.0 mg/kg/injection, schedule: Q01DX001 (ip), vehicle: saline with Tween-80 103 % of control | [5] 98 % of control and 108 % of control | [6] 105 % of control and 88 % of control | [7] 98 % of control

O=S1(=O)C(c2ccccc2)=Cc2cccn2-c2ccccc21
inactive: [8] 95 % of control | [9] 104 % of control | [10] 98 % of control

N#CCCNC(Cc1ccc(O)cc1)C(=O)O (stereo unspecified)
inactive: dose: 12.5 mg/kg/injection, schedule: Q04DX003 (ip), vehicle: Klucel (hydroxypropylcellulose) (HPC) 104 % of control | dose: 25.0 mg/kg/injection, schedule: Q01DX009 (ip), vehicle: Klucel (hydroxypropylcellulose) (HPC) 104 % of control | dose: 25.0 mg/kg/injection, schedule: Q04DX003 (ip), vehicle: Klucel (hydroxypropylcellulose) (HPC) 98 % of control | [11] 95 % of control | dose: 50.0 mg/kg/injection, schedule: Q04DX003 (ip), vehicle: Klucel (hydroxypropylcellulose) (HPC) 104 % of control | [12] 106 % of control | [8] 100 % of control

C=CCSC(=S)OCC
inactive: dose: 25.0 mg/kg/injection, schedule: Q01DX009 (ip), vehicle: saline with Tween-80 88 % of control | dose: 50.0 mg/kg/injection, schedule: Q01DX009 (ip), vehicle: saline with Tween-80 104 % of control | [1] 109 % of control

CC(=O)N/N=C(/C)C(=O)O
inactive: dose: 50.0 mg/kg/injection, schedule: Q01DX009 (ip), vehicle: water 100 % of control | dose: 100.0 mg/kg/injection, schedule: Q01DX009 (ip), vehicle: water 100 % of control | dose: 100.0 mg/kg/injection, schedule: Q04DX003 (ip), vehicle: water 97 % of control | dose: 200.0 mg/kg/injection, schedule: Q04DX003 (ip), vehicle: water 106 % of control

CCOC(=O)C1C(=O)C(C(C(=O)OC2CC(C)CCC2C(C)C)N(CCCl)CCCl)C(=O)C(C(=O)OCC)C1c1ccc(O)cc1 (stereo unspecified)
inactive: [11] 104 % of control | [12] 104 % of control | [13] 101 % of control

COC(=O)c1ccc2c(ccc[n+]2C)c1
inactive: dose: 37.5 mg/kg/injection, schedule: Q04DX003 (ip), vehicle: saline with Tween-80 96 % of control | dose: 75.0 mg/kg/injection, schedule: Q01DX001 (ip), vehicle: saline 97 % of control | dose: 75.0 mg/kg/injection, schedule: Q04DX003 (ip), vehicle: saline with Tween-80 96 % of control | dose: 150.0 mg/kg/injection, schedule: Q01DX001 (ip), vehicle: saline 90 % of control | dose: 150.0 mg/kg/injection, schedule: Q04DX003 (ip), vehicle: saline with Tween-80 89 % of control

Oc1ccccc1C1OCCO1
inactive: [14] 107 % of control | [15] 95 % of control | [16] 95 % of control

CCCCCCCCCCCCCCCCCCOC(=O)C(C(C)=O)C(c1cccc([N+](=O)[O-])c1)C(C(C)=O)C(=O)O (stereo unspecified)
inactive: dose: 25.6 mg/kg/injection, schedule: Q04DX002 (ip), vehicle: saline with Tween-80 87 % of control | dose: 64.0 mg/kg/injection, schedule: Q04DX002 (ip), vehicle: saline with Tween-80 95 % of control | [2] 90 % of control | dose: 160.0 mg/kg/injection, schedule: Q04DX002 (ip), vehicle: saline with Tween-80 95 % of control | [6] 91 % of control | [7] 92 % of control

CC(C)N(C(=O)CSc1c(Cl)c(Cl)c(Cl)c(Cl)c1Cl)C(C)C
inactive: dose: 100.0 mg/kg/injection, schedule: Q04DX002 (ip), vehicle: other 107 % of control and 113 % of control | [17] 89 % of control and 91 % of control | dose: 200.0 mg/kg/injection, schedule: Q04DX002 (ip), vehicle: other 95 % of control and 106 % of control | [18] 96 % of control and 91 % of control | [19] 94 % of control

O=C1NN=C(c2ccccc2)CC1c1ccccc1 (stereo unspecified)
inactive: dose: 100.0 mg/kg/injection, schedule: Q01DX001 (ip), vehicle: Klucel (hydroxypropylcellulose) (HPC) 100 % of control | [8] 101 % of control | dose: 200.0 mg/kg/injection, schedule: Q01DX001 (ip), vehicle: Klucel (hydroxypropylcellulose) (HPC) 97 % of control | [9] 96 % of control | dose: 400.0 mg/kg/injection, schedule: Q01DX001 (ip), vehicle: Klucel (hydroxypropylcellulose) (HPC) 100 % of control | [10] 93 % of control

CCc1ccccc1NC(=O)Nc1ccccc1C
inactive: [12] 87 % of control | [8] 88 % of control | [13] 93 % of control | [9] 89 % of control | dose: 400.0 mg/kg/injection, schedule: Q01DX009 (ip), vehicle: Klucel (hydroxypropylcellulose) (HPC) 87 % of control | [10] 93 % of control

CCCC(=O)Nc1ccc(O)cc1
inactive: [1] 100 % of control | [2] 96 % of control | [3] 110 % of control | [4] 101 % of control | dose: 266.0 mg/kg/injection, schedule: Q01DX009 (ip), vehicle: saline with Tween-80 109 % of control | [7] 106 % of control

CCN(CC)S(=O)(=O)c1cccc(C(O)CC(O)(C(F)(F)F)C(F)(F)F)c1 (stereo unspecified)
inactive: [17] 102 % of control | [18] 100 % of control | [19] 96 % of control

C[Si](C)(C)Br
inactive: [20] 96 % of control | [21] 87 % of control | dose: 400.0 mg/kg/injection, schedule: Q01DX009 (ip), vehicle: saline 87 % of control

CS/C(N)=N\N=C/c1ccccc1
inactive: dose: 6.25 mg/kg/injection, schedule: Q01DX009 (ip), vehicle: saline 102 % of control | dose: 12.5 mg/kg/injection, schedule: Q01DX009 (ip), vehicle: saline 102 % of control | dose: 25.0 mg/kg/injection, schedule: Q01DX001 (ip), vehicle: saline 117 % of control | dose: 25.0 mg/kg/injection, schedule: Q01DX009 (ip), vehicle: saline 102 % of control | dose: 25.0 mg/kg/injection, schedule: Q04DX003 (ip), vehicle: saline 97 % of control | dose: 50.0 mg/kg/injection, schedule: Q01DX001 (ip), vehicle: saline 97 % of control | [14] 102 % of control and 105 % of control

CN(C)c1ccc(C2NC(c3ccccc3)c3c(ccc4ccccc34)O2)cc1 (stereo unspecified)
inactive: [14] 92 % of control | [22] 90 % of control | [15] 89 % of control | [16] 89 % of control | [23] 90 % of control

CCS(=O)(=O)N(CC(=O)O)Cc1ccccc1
inactive: dose: 50.0 mg/kg/injection, schedule: Q01DX009 (ip), vehicle: saline 100 % of control | [20] 104 % of control | [22] 100 % of control | [21] 93 % of control | dose: 200.0 mg/kg/injection, schedule: Q04DX003 (ip), vehicle: saline 96 % of control | dose: 300.0 mg/kg/injection, schedule: Q01DX009 (ip), vehicle: saline 95 % of control | [23] 94 % of control

CCC1(O)CCCC1
inactive: dose: 50.0 mg/kg/injection, schedule: Q01DX001 (ip), vehicle: carboxymethylcellulose (CMC) 95 % of control | dose: 100.0 mg/kg/injection, schedule: Q01DX001 (ip), vehicle: carboxymethylcellulose (CMC) 92 % of control | dose: 200.0 mg/kg/injection, schedule: Q01DX001 (ip), vehicle: carboxymethylcellulose (CMC) 92 % of control | dose: 400.0 mg/kg/injection, schedule: Q01DX001 (ip), vehicle: carboxymethylcellulose (CMC) 97 % of control

CC(=O)c1c(O)cc(O)cc1O
inactive: [1] 96 % of control | [3] 91 % of control | [5] 98 % of control
